These results are taken from US20240109917A1 (ACTELION PHARMACEUTICALS LTD, priority 2020, published 2024).

Read-outs that look alike come from different tables or passages of the source.

The target in one experiment is PDGFRβ (Rattus norvegicus (Rat), UniProt Q05030). Briefly: PDGFRβ Cellular Assay (PDGFRb P-Y751 HTRF in A10 cells stimulated with PDGF-BB). Type of experiment: cell-based. A digest of the protocol:
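Phospho-Y751 PDGFRβ was measured by HTRF in lysates of A10 rat cells. Cells received compound for 3 hours before PDGF-BB stimulation (100 ng/mL working stock).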

Experiment [1] has as its target His6-TEV-PDGFRβ (557-1016) (Homo sapiens (Human), UniProt P09619). As to the kind of experiment: PDGFRβ HTRF Assay. Type of experiment: biochemical. Particulars: read-out: PDGFR HTRF IC50. The method in brief: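 HTRF KinEASE-TK readout (665/620 nm ratio) of TK-biotin substrate phosphorylation by His-tagged PDGFRβ kinase domain. Enzyme and inhibitor preincubated 30 min, then ATP/substrate added for 3 h at room temperature before 60 min EDTA quench/detection.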
In general terms: In TR-FRET formats the signal depends on donor and acceptor labels being close together.

His6-TEV-PDGFRβ (557-1016), sequence (P09619 557-1016): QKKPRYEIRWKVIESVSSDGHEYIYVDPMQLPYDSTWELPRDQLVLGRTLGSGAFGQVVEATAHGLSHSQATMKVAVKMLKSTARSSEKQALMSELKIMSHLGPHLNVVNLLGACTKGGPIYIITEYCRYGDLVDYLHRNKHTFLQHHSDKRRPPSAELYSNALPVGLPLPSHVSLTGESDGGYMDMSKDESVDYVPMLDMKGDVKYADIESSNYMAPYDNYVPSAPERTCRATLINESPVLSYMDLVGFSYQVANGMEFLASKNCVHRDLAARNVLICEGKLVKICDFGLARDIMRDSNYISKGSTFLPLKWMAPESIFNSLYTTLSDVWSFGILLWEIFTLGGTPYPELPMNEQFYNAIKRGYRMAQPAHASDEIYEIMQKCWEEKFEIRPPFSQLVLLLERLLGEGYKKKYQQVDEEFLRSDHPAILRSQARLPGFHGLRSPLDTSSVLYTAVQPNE
PDGFRβ, sequence (Q05030 32-1097): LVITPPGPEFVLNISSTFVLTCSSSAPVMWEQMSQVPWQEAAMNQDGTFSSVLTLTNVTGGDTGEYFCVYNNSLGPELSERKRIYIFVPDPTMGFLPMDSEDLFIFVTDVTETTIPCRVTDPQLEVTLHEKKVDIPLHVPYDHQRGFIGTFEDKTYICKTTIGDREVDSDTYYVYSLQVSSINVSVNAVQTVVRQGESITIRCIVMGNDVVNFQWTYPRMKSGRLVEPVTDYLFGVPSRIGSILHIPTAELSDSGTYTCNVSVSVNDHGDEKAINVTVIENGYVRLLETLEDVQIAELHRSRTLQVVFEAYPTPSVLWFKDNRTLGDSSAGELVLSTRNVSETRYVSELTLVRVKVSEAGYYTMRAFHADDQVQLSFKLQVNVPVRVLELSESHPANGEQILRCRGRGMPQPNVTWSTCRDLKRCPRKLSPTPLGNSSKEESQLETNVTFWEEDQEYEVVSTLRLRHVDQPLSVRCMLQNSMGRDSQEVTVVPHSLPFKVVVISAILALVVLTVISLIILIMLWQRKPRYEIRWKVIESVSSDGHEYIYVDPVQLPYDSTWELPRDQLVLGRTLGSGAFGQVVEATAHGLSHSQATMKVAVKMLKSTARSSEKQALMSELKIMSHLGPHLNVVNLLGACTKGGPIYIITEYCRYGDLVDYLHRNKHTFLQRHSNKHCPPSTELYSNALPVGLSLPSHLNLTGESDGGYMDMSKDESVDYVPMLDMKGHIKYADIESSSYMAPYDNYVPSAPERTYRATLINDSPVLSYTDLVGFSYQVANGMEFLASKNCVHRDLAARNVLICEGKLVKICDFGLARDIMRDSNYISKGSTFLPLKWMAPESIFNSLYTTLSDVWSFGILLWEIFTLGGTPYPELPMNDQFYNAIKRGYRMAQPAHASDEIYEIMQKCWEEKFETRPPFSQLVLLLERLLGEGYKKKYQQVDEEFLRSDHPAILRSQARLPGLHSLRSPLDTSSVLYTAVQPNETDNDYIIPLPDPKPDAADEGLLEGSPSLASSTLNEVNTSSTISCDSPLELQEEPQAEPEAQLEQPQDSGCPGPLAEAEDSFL

For orientation: IC50 means the concentration at which inhibition is half-maximal. As for `Cc1ncc(NC(=O)CN2CCC3(CCOC3)C2)cc1NC(=O)c1cnn2cc(-c3cnn(C)c3)sc12` (centres unmarked) [Example 19, N-(5-(2-(2-oxa-7-azaspiro[4.4]nonan-7-yl)acetamido)-2-methylpyridin-3-yl)-2-(1-methyl-1H-pyrazol-4-yl)pyrazolo[5,1-b]thiazole-7-carboxamide], the half-maximal inhibitory concentration (IC50) on PDGFRβ (read-out: PDGFR Cellular IC50) was 12.9 nM; in experiment [1] it was 0.7 nM.
With `Cc1ncc(NC(=O)CN2CCCC23COC3)cc1NC(=O)c1cnn2cc(-c3cnn(C)c3)sc12` [Example 20, N-(5-(2-(2-oxa-5-azaspiro[3.4]octan-5-yl)acetamido)-2-methyl-pyridin-3-yl)-2-(1-methyl-1H-pyrazol-4-yl)pyrazolo[5,1-b]thiazole-7-carboxamide], the IC50 turned out to be 35.9 nM at PDGFRβ (read-out: PDGFR Cellular IC50) and 0.7 nM in experiment [1].
The matching figures for `Cc1ncc(NC(=O)CN2CCC3(CCCO3)C2)cc1NC(=O)c1cnn2cc(-c3cnn(C)c3)sc12` (centres unmarked) [Example 21, N-(5-(2-(1-oxa-7-azaspiro[4.4]nonan-7-yl)acetamido)-2-methylpyridin-3-yl)-2-(1-methyl-1H-pyrazol-4-yl)pyrazolo[5,1-b]thiazole-7-carboxamide]: 10.9 nM and 0.7 nM.
The matching figures for `Cc1ncc(NC(=O)CN2CC(C)(C)C2)cc1NC(=O)c1cnn2cc(-c3cnn(C)c3)sc12` [Example 22, N-(5-(2-(3,3-dimethylazetidin-1-yl)acetamido)-2-methylpyridin-3-yl)-2-(1-methyl-1H-pyrazol-4-yl)pyrazolo[5,1-b]thiazole-7-carboxamide]: 5.3 nM and 0.7 nM.
`Cc1ncc(NC(=O)CN2CCc3ccncc3C2)cc1NC(=O)c1cnn2cc(-c3cnn(C)c3)sc12` [Example 23, N-(5-(2-(3,4-dihydro-2,7-naphthyridin-2 (1H)-yl)acetamido)-2-methylpyridin-3-yl)-2-(1-methyl-1H-pyrazol-4-yl)pyrazolo[5,1-b]thiazole-7-carboxamide]: the IC50 against PDGFRβ (PDGFR Cellular IC50) was 67.7 nM; in experiment [1], 0.7 nM.
Turning to `Cc1ncc(NC(=O)CN2CCCC3(COC3)C2)cc1NC(=O)c1cnn2cc(-c3cnn(C)c3)sc12` [Example 24, N-(5-(2-(2-oxa-6-azaspiro[3.5]nonan-6-yl)acetamido)-2-methylpyridin-3-yl)-2-(1-methyl-1H-pyrazol-4-yl)pyrazolo[5,1-b]thiazole-7-carboxamide], the IC50 on PDGFRβ (read-out: PDGFR Cellular IC50) came out at 31.8 nM; in experiment [1], 0.7 nM.
Consider `Cc1ncc(NC(=O)CN2CCCCC23COC3)cc1NC(=O)c1cnn2cc(-c3cnn(C)c3)sc12` [Example 25, N-(5-(2-(2-oxa-5-azaspiro[3.5]nonan-5-yl)acetamido)-2-methylpyridin-3-yl)-2-(1-methyl-1H-pyrazol-4-yl)pyrazolo[5,1-b]thiazole-7-carboxamide], for which the values for the IC50 (on PDGFRβ (read-out: PDGFR Cellular IC50); in experiment [1]) were 27.7 nM and 0.7 nM, respectively.
`COc1ncccc1-c1cn2ncc(C(=O)Nc3cc(NC(=O)OCCN4CCCC4(C)C)cnc3C)c2s1` [Example 254, 2-(2,2-dimethylpyrrolidin-1-yl)ethyl (5-(2-(2-methoxypyridin-3-yl)pyrazolo[5,1-b]thiazole-7-carboxamido)-6-methylpyridin-3-yl)carbamate]: the concentration for half-maximal inhibition (IC50) on PDGFRβ (read-out: PDGFR Cellular IC50) worked out at 6.2 nM; in experiment [1], 0.2 nM.
The matching figures for `COc1ncccc1-c1cn2ncc(C(=O)Nc3cc(NC(=O)OCC(C)N4CCCC4)cnc3C)c2s1` (centres unmarked) [Example 255, 2-(pyrrolidin-1-yl)propyl (5-(2-(2-methoxypyridin-3-yl)pyrazolo[5,1-b]thiazole-7-carboxamido)-6-methylpyridin-3-yl)carbamate]: 9.3 nM and 0.2 nM.
Turning to `Cc1ncc(NC(=O)OC[C@@H]2CCCN2C)cc1NC(=O)c1cnn2cc(-c3cccnc3O)sc12` [Example 256, (S)-(1-methylpyrrolidin-2-yl)methyl (5-(2-(2-hydroxypyridin-3-yl)pyrazolo[5,1-b]thiazole-7-carboxamido)-6-methylpyridin-3-yl)carbamate], the IC50 against PDGFRβ (PDGFR Cellular IC50) amounted to 1340 nM; in experiment [1], 0.6 nM.
